Laboratory results reported in US20110190130A1, “SYNERGISTIC HERBICIDAL COMPOSITION CONTAINING AMINOPYRALID AND 2,4-DICHLOROPHENOXYACETIC ACID” (DOW AGROSCIENCES LLC, priority 2010, published 2011).

Tests used:
Assay type in all cases: in vivo
[1] = test system: purple nutsedge (Cyperus rotundus, CYPRO); assay: Postemergence herbicidal activity of mixtures under field conditions, purple nutsedge; conditions: 27 days after application, rice
Experimental: (§1) These trials were conducted under field conditions in Tolima, Colombia. Trial sites were located in commercially grown fields of common rice (Oryza sativa). The rice crop was grown using normal cultural practices for fertilization, seeding, and maintenance to ensure good growth of the crop and the weeds. The trials were conducted using normal research methodology. Trial plots were 3 meters (m) wide by 6 m long. All treatments were applied using a randomized complete block trial design with 4 replications per treatment. The trial sites had naturally occurring populations of weeds. The weed spectrum included, but was not limited to, rice flatsedge (Cyperus iria, CYPIR); purple nutsedge (Cyperus rotundus, CYPRO); and common purslane, (Portulaca oleracea, POROL). The plots were treated with a postemergence foliar application 15 to 20 days after emergence of the rice.
(§2) Treatments consisted of tank mixes of soluble granules of aminopyralid tri-isopropanolammonium salt and commercially available formulations of 2,4-D (DMA 6 herbicide, water dispersible granules). The application volume was 160 liters per hectare (L/ha) of water. All application were made using precision gas hand sprayers using a 3 m boom using flat fan) (80° nozzles to broadcast the treatments over the top of the rice.
(§3) The treated plots and control plots were rated blind at various intervals after application. Ratings were based of Percent (%) Visual weed control, where 0 corresponds to no injury and 100 corresponds to complete kill.
(§4) Colby's equation was used to determine the herbicidal effects expected from the mixtures (Colby, S. R. Calculation of the synergistic and antagonistic response of herbicide combinations. Weeds 1967 15, 20-22).
(§5) The following equation was used to calculate the expected activity of mixtures containing two active ingredients, A and B:
(§6) A=observed efficacy of active ingredient A at the same concentration as used in the mixture;
(§7) B=observed efficacy of active ingredient B at the same concentration as used in the mixture.

[2] = test system: common purslane (Portulaca oleracea, POROL); assay: Postemergence herbicidal activity of mixtures under field conditions, common purslane; conditions: 27 days after application, rice
Experimental: as §1, §2, §3, §4, §5, §6, §7

[3] = test system: rice flatsedge (Cyperus iria, CYPIR); assay: Postemergence herbicidal activity of mixtures under field conditions, rice flatsedge; conditions: 27 days after application
Experimental: as §1, §2, §3, §4, §5, §6, §7

[4] = aminopyralid 9 grams ae/ha alone
[5] = aminopyralid 12 grams ae/ha alone

**Q.** Which “% Control CYPRO Obs” value ([1]; 2,4-D 180 grams ae/ha alone) does the source give for `O=C(O)COc1ccc(Cl)cc1Cl` [2,4-D, 2,4-dichlorophenoxyacetic acid] here?
**A.** 38%

**Q.** And the “% Control CYPRO Obs” value ([1]; 2,4-D 240 grams ae/ha alone)?
**A.** 60%

**Q.** And the “% Control POROL Obs” value ([2]; 2,4-D 180 grams ae/ha alone)?
**A.** 20%

**Q.** And the “% Control POROL Obs” value ([2]; 2,4-D 240 grams ae/ha alone)?
**A.** 39%

**Q.** What about the “% Control CYPIR Obs” value ([3]; 2,4-D 180 grams ae/ha alone) of the same compound?
**A.** 45%

**Q.** What about the “% Control CYPIR Obs” value ([3]; 2,4-D 240 grams ae/ha alone) of the same compound?
**A.** 46%

**Q.** What does the source list for `Nc1cc(Cl)nc(C(=O)O)c1Cl` [Aminopyralid, 4-amino-3,6-dichloro-2-pyridinecarboxylic acid]?
**A.** % Control CYPRO Obs [1, 4]: 0%; % Control CYPRO Obs [1, 5]: 0%; % Control POROL Obs [2, 4]: 41%; % Control POROL Obs [2, 5]: 53%; % Control CYPIR Obs [3, 4]: 0%; % Control CYPIR Obs [3, 5]: 13%
